Our source for the EC50 values is BindingDB's records for doi:10.1021/jm0704550 (Cnrs, 2007).

For this experiment, the target named is Growth hormone secretagogue receptor type 1 (Homo sapiens, UniProt Q92847). In words: Receptor Binding Studies.
Chain of Growth hormone secretagogue receptor type 1 (Q92847 whole entry): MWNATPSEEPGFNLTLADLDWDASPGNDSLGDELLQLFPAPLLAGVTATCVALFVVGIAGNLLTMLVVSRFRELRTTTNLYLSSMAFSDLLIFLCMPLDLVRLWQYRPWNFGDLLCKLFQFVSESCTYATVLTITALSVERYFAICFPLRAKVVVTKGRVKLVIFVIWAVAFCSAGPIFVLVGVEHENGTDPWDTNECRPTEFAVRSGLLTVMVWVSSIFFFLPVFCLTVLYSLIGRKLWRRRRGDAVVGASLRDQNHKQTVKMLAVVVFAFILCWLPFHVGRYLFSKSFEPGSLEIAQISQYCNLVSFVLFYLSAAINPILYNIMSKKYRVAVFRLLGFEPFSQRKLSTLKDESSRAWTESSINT
For the compound `COc1ccc(Cn2c(CCc3ccccc3)nnc2[C@@H](Cc2c[nH]c3ccccc23)NC(=O)C2CNCCN2)cc1` (stereo partly drawn) [N-[(1R)-2-(1H-indol-3-yl)-1-{4-[(4-methoxyphenyl)methyl]-5-(2-phenylethyl)-4H-1,2,4-triazol-3-yl}ethyl]piperazine-2-carboxamide], the EC50 (usually the concentration that produces a half-maximal response) is 12 nM.

`COc1ccc(Cn2c(CCc3ccccc3)nnc2[C@@H](Cc2c[nH]c3ccccc23)NC(=O)C2CCNCC2)cc1` [N-[(1R)-2-(1H-indol-3-yl)-1-{4-[(4-methoxyphenyl)methyl]-5-(2-phenylethyl)-4H-1,2,4-triazol-3-yl}ethyl]piperidine-4-carboxamide] came in with an EC50 of 1.6 nM. For `COc1ccc(Cn2c(CCc3c[nH]c4ccccc34)nnc2[C@@H](Cc2c[nH]c3ccccc23)NC(=O)C2CNCCN2)cc1` (stereo partly drawn) [N-[(1R)-2-(1H-indol-3-yl)-1-{5-[2-(1H-indol-3-yl)ethyl]-4-[(4-methoxyphenyl)methyl]-4H-1,2,4-triazol-3-yl}ethyl]piperazine-2-carboxamide] the value was 8.7 nM.
